Values after ≈ are worked out from the molar mass of the structure shown. “Also recorded” adds a separate entry of the source.
How the values were obtained:
[1] = Limit of solubility of F-Ade in water; type: physicochemical; details: dissolved in water
[2] = system: parental D54 tumors (no E. coli PNP expression); assay: Intratumoral injection into parental D54 tumors (no E. coli PNP expression)
Description: Parental and E. coli PNP expressing D54MG (human glioma) tumor cells (2×10^7 cells) are injected subcutaneously into the flanks of nude mice (nu/nu) purchased from Charles River Laboratories (Wilmington, Mass.). D54 tumor cells stably transduced with E. coli PNP are prepared as described previously (Parker et al. Cancer Gene Therapy 2011 June; 18(6):390-8). Tumors are measured with calipers and an estimate of the weight calculated using the equation, (length×width^2)/2=mm^3, and converted to mg assuming unit density. […] Each treatment arm of each group contained at least 6 mice. Mice are monitored daily for weight loss and twice weekly for tumor dimensions. T-C (tumor growth delay) is taken as the difference in days to 2 doublings between drug-treated and saline-treated groups. The time to the evaluation point for each animal (2 doublings) is used as the end point in a Student's t-test, the Mann-Whitney rank sum test, or a life table analysis in order to statistically compare growth data between treatment groups. All procedures are performed in accordance with a protocol approved by the IACUC of Southern Research Institute. F-araAMP is obtained from Schering A.-G. (Berlin, Germany). In this and subsequent examples, F-Ade is obtained from General Intermediates of Canada, Inc. (Edmonton, Alberta, Canada). Treatments are initiated when tumors are 250 to 300 mg (˜1-1.5% of total animal weight).
In FIG. 2A, parental D54 tumor cells are mixed with D54 tumor cells that had been transduced with E. coli PNP to a final proportion in which 10% express the transgene. This 90/10 mixture is injected sc into the flanks of nude mice. Tumors are injected once per day for 3 consecutive days starting on day 14 with 150 μl of saline, 1.5 mg of F-araAMP dissolved in saline, or 3 mg of F-araAMP is dissolved in saline. […] In FIG. 2B, parental D54 tumor cells (no E. coli PNP expression) are injected sc into the flanks of nude mice. Tumors are inoculated once per day for 3 consecutive days starting on day 14 with 150 μl of saline, 3 mg F-araAMP is dissolved in saline, 0.15 mg of F-Ade dissolved in saline, 1.26 mg of F-Ade dissolved in […] DMSO, 0.63 mg of F-Ade dissolved in DMSO, or DMSO.
As noted above, the amount of F-araAMP given intratumorally (in FIG. 2A) is less than the total intraperitoneal dose described in FIG. 1. In order to investigate the impact of higher doses of F-araAMP, the F-araAMP is dissolved in DMSO, and given at concentrations well tolerated IT, but well above the maximally-tolerated dose if administered IP (Hong et al. Cancer Res. 2004; 64: 6610-6615). Three doses of 6 or 24 mg is administered by IT injection to tumors in which 10% of cells expressed E. coli PNP (FIG. 2C). Parental D54 tumor cells or mixtures of D54 tumor cells in which 10% of the cells express E. coli PNP are injected sc into the flanks of nude mice. Tumors are injected once per day for 3 consecutive days starting on day 17 with 150 μl of DMSO, 24 mg F-araAMP in DMSO, or 6 mg F-araAMP in DMSO.

[3] = system: D54 tumors in which 10% of cells express E. coli PNP; assay: F-araAMP plus radiation on D54 tumors in which 10% of cells express E. coli PNP; details: 3 mg F-araAMP in saline x3, radiation 4 Gy x3, 3 hours after injection
Description: Locally advanced solid tumors often become resistant to radiation therapy. As a test of adjuvant E. coli PNP in this setting, F-araAMP injection together with external beam radiation is investigated.
D54 tumor cells in which 10% of cells expressed E. coli PNP are injected sc into the flanks of nude mice. The tumors are treated with radiation, F-araAMP, or F-araAMP plus radiation. In two treatment groups, tumors are injected once per day for 3 consecutive days with 150 μl of either saline or 3 mg F-araAMP dissolved in saline. In two other treatment groups radiation (4 Gy) is administered once per day for 3 consecutive days 3 hours after injection of 150 μl of either saline (filled squares) or 3 mg F-araAMP dissolved in saline (open squares).

D54 tumors = assay: Radioactivity in tumors after intratumoral injection of [3H]F-araAMP, parental D54 tumors; type: in vivo, mice
Description: Total radioactivity is determined after injection of 3 mg [8-^3H]F-araAMP (10 μCi) into 300 mg D54 flank tumors. [8-^3H]F-araAMP is obtained from Moravek Biochemicals Inc. (Brea, Calif.). Tumors are removed from the mice at 10 minutes or 4 hours after injection and dissolved in 1 ml of Soluene 350 (Packard Instrument, Meriden, Conn.) by incubating at 55° C. for 4 hours. A portion of each extract is mixed with scintillation fluid and radioactivity determined.
In an effort to understand the pharmacodynamics of intratumoral (IT) F-araAMP, the levels of prodrug activation in parental (D54) tumors and tumors in which 10% of cells expressed E. coli PNP are monitored (Table 1). Tumor tissue is collected 10 minutes or 4 hours after IT injection of 3 mg [^3H]-F-araAMP and the amount of radioactivity remaining in the tumor mass determined.
Three mg (8,200 nmoles) of [^3H]F-araAMP (10 μCi/injection) are injected into D54 tumors or D54 tumors in which 10% of the cells express E. coli PNP as described in FIG. 2. Tumors (approximately 300 mg) are removed 10 minutes and 4 hours after injection with F-araAMP and the amount of radioactivity in each tumor determined. There are 4 tumors per group.

[4] = system: D54 tumors that express E. coli PNP in 5% of the cells; assay: Systemic intraperitoneal F-araAMP on D54 tumors expressing E. coli PNP in 5% of cells; type: in vivo, nude mice
Description: Intraperitoneal treatment with F-araAMP (250 mg/kg once per day for 3 consecutive days; 167 mg/kg 3 times per day for 3 consecutive days; 100 mg/kg 5 times a day for 3 consecutive days; or vehicle control 5 times a day×3 days) began on day 17 when tumors are approximately 250 mg. […] (FIG. 1)

[5] = system: D54 tumors in which 10% of the cells express E. coli PNP; assay: Intratumoral injection into D54 tumors in which 10% of cells express E. coli PNP; type: in vivo, nude mice
Description: Parental and E. coli PNP expressing D54MG (human glioma) tumor cells (2×10^7 cells) are injected subcutaneously into the flanks of nude mice (nu/nu) purchased from Charles River Laboratories (Wilmington, Mass.). […] Tumors are measured with calipers and an estimate of the weight calculated using the equation, (length×width^2)/2=mm^3, and converted to mg assuming unit density. […] Each treatment arm of each group contained at least 6 mice. Mice are monitored daily for weight loss and twice weekly for tumor dimensions. T-C (tumor growth delay) is taken as the difference in days to 2 doublings between drug-treated and saline-treated groups. The time to the evaluation point for each animal (2 doublings) is used as the end point in a Student's t-test, the Mann-Whitney rank sum test, or a life table analysis in order to statistically compare growth data between treatment groups. […] Treatments are initiated when tumors are 250 to 300 mg (˜1-1.5% of total animal weight).

[6] = schedule q1d×3; cited from earlier work
E. coli PNP [7] = molecular target: T1, E. coli PNP (Escherichia coli, UniProt P0ABP8); details: cited from earlier work
T1 construct: expressed in transfected cells; host or cells: D54MG human glioma cells, either stably transduced by lentivirus or transduced in vivo with adenoviral vector Ad/PNP, grown as xenografts in nude mice; Crude tumor extracts were assayed
T1 sequence (P0ABP8 whole entry): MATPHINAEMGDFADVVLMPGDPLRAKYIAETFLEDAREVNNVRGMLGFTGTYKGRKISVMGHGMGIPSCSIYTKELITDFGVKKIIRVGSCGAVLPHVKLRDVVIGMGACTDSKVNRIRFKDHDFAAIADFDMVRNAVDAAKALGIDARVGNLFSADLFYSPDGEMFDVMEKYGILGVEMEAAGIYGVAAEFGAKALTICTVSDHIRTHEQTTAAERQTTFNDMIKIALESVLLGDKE

E. coli PNP [8] = molecular target: T1, E. coli PNP; assay: Measurement of E. coli PNP activity in tumor extracts; type: biochemical; details: D54 tumors on day 20 after 2×10^11 VP Ad/PNP IT twice per day x3 days, FIG. 5A experiment
Description: The proportion of lentiviral transduced cells in a tumor mass is verified by measuring E. coli PNP activity in representative cancers removed from mice on the first day of drug treatment. Crude extracts are prepared as described previously (Parker et al. Human Gene Therapy 1997; 8: 1637-1644) after tumor excision from the flanks of mice. […] The formation of MeP is monitored using reverse phase HPLC. By convention, one unit of PNP activity is defined as the amount of extract necessary to cleave 1 nmole of MeP-dR per mg protein in a 1 hour period.

In the case of `Nc1nc(F)nc2nc[nH]c12` [F-Ade, 2-fluoroadenine], the solubility [1] was 1000 µg/mL (≈ 6.53 mM), the “Tumor growth, P versus DMSO vehicle group” value ([2]; 0.63 mg F-Ade in DMSO IT once per day x3, FIG. 2B) was 0.011 and the Antitumor effect ([2]; F-Ade 0.15 ml of 1 mg/ml in water/saline (highest possible solubility) IT) was “no antitumor effect; also recorded: fails to elicit antitumor activity”. The Antitumor effect ([2]; F-Ade in DMSO IT (0.15 ml of 8.6 mg/ml; 1.26 mg x3)) was “modest antitumor effect; also recorded: minimal antitumor activity”, the “Maximally tolerated dose (MTD)” value ([2]; F-Ade in DMSO, three IT injections) was about 1.26 mg and the “Decrease in body weight” value ([2]; three IT injections of 1.26 mg F-Ade in DMSO) was 10%. The Death of mice ([2]; three IT injections of 2.5 mg F-Ade in DMSO) was 3 of 6 and the Death of mice ([2]; three IT injections of 5 mg F-Ade in DMSO) was 4 of 6.

For `Nc1nc(F)nc2c1ncn2[C@@H]1O[C@H](COP(=O)(O)O)[C@@H](O)[C@@H]1O` [F-araAMP, fludarabine phosphate], the “Tumor growth, P of radiation plus F-araAMP versus F-araAMP only” value [3] was 0.004, the “Tumor growth, P of radiation plus F-araAMP versus radiation only” value [3] was under 0.001 and the “Radioactivity in tumor, nmoles F-araAMP/gram of tissue” value (D54 tumors; 10 min after IT injection of 3 mg [3H]F-araAMP) was 980 ± 730 nmoles F-araAMP/gram of tissue. The “Radioactivity in tumor, nmoles F-araAMP/gram of tissue” value (D54 tumors; 4 hours after IT injection of 3 mg [3H]F-araAMP) was 31 ± 6 nmoles F-araAMP/gram of tissue, the “Effect on tumor growth” value ([2]; IT F-araAMP, FIGS. 2B, 2D and 3) was “no effect” and the “Gross tissue damage in region surrounding the tumor” value ([4]; IP F-araAMP) was “no gross tissue damage”. The “Decrease in body weight” value ([4]; IP F-araAMP, quickly regained after schedule completed) was 10 to 20%, the “Tumor growth, P versus vehicle treated group” value ([4]; all IP F-araAMP groups (250 mg/kg x3, 167 mg/kg x9, 100 mg/kg x15 over 3 days), from day 17, FIG. 1) was under 0.001 and the Weight loss ([5]; 3 mg F-araAMP IT per injection, 3 total injections) was “less than 4%”. For the same molecule, the “Tumor growth, P versus vehicle treated group” value ([5]; 3 mg F-araAMP in saline IT once per day x3 from day 14, FIG. 2A) was under 0.001, the “Tumor growth, P versus vehicle treated group” value ([5]; 6 mg F-araAMP in DMSO IT once per day x3 from day 17, FIG. 2C) was 0.014 and the Tumor ulcerations ([5]; 6 mg F-araAMP in DMSO IT x3) was “no ulcerations”. The “Tumor growth, P versus vehicle treated group” value ([5]; 24 mg F-araAMP in DMSO IT once per day x3 from day 17, FIG. 2C) was under 0.001, the “Tumors that became ulcerated” value ([5]; 24 mg F-araAMP in DMSO IT x3) was “Three of the 6” and the “Tumors completely regressed, mice tumor-free until day 70” value ([5]; 24 mg F-araAMP in DMSO IT x3, of 6 tumors, 3 sacrificed for ulceration) was 3 tumors. For the same molecule, the “Decrease in body weight” value ([5]; F-araAMP IT at the highest dose (24 mg), recovered rapidly) was 7%, the “Tumor growth, P of 3 mg group versus 1.5 mg group” value ([5]; F-araAMP in saline IT once per day x3 from day 14, FIG. 2A) was 0.458 and the Maximally tolerated dose [6] was 750 mg/kg.

For `Nc1nc(F)nc2c1ncn2[C@H]1C[C@H](O)[C@@H](CO)O1` [F-dAdo, 2-F-2′-deoxyadenosine], the “Substrate for E. coli PNP compared with F-araA” value (E. coli PNP [7]) is given as “much better substrate”.

In the case of Ad/PNP, the “E. coli PNP activity in the tumors” value (E. coli PNP [8]) was 7,500±2,000 units.

Source: patent US10080784B2, “Enhanced therapeutic usage of a purine nucleoside phosphorylase or nucleoside hydrolase prodrug” (SOUTHERN RESEARCH INSTITUTE, priority 2011, dated 2018)
